Data published in patent publication US20050019746A1, “Apoptosis-related kinase/GPCRs” (EiRx Therapeutics Limited, priority 2003, published 2005).

How the values were obtained:
[1] = system: human primary neutrophils; experiment: Neutrophil apoptosis by sub G1 analysis (DNA fragmentation); type: cell-based; conditions: neutrophils cultured overnight with GM-CSF (65% without)
Protocol: Neutrophils are isolated from the blood as described in WO 02/04657 and resuspended at a concentration of 2×10^6/ml. Five hundred microlitres are pipetted into wells of a 24 well plate and incubated in the presence or absence of survival factors.
After this incubation, the neutrophils are carefully resuspended by gentle agitation and the total contents of the well are placed into an eppendorf and centrifuged@2800 rpm for 2 min@RT in a minifuge. The cell pellet is carefully resuspended in 300 μl of ice cold hypotonic fluorochrome solution (50 μg/ml Propidium Iodide, 0.1% Sodium Citrate and 0.1% Triton X-100) and placed in a fridge for 24 h@4° C.
Prepared samples are analysed with a FacsCalibre flow cytometer (Becton Dickinson) using double discrimination to ensure single cell suspension with Log Forward and Side Scatter Parameter acquisition.
(§1) Neutrophils are seeded at 2×10^6/ml in a 24 well plate in full culture medium (1 ml/well). A PI3K inhibitor (Ly294002) is added to the neutrophils to a final concentration of 20 μM prior to the addition of GM-CSF (50 units/ml). Control wells received either no GM-CSF or F GM-CSF (50 units/ml) in the absence of inhibitor. Neutrophils are cultured for 18 h at 37° C. prior to harvest and prepared for sub G1 analysis, as previously described.
as §1, with “An AKT” for “A PI3K”, “([1L-6-Hydroxymethyl-chiro-inositol 2-O-methyl-3-O-octadecylcarbonate] (Calbiochem))” for “(Ly294002)”, “μM and incubated for 2 h” for “μM”, “receive” for “received”, “or” for “or F”

TF1 cells [2] = experiment: TF1 apoptosis by sub G1 analysis; type: cell-based, human; conditions: TF1, 48 h, with GM-CSF (approximately 55% in the absence)
Protocol: TF1 cells are cultured for 48 h in the presence or absence of GM-CSF (2 ng/ml). Cells are then harvested by centrifugation (1000 rpm, for 10 min) and washed in PBS. The pellet is resuspended in PBS (2×10^5 cells/ml) and 1 ml is then added in a dropwise fashion to ice cold 70% EtoH whilst continuously vortexing. Cells are then permeabilized by incubating at −20° C. for 24 h. To stain DNA, cells are centrifuged and washed in PBS. Cells are resuspended in 500 μl Propidium Iodide Buffer (Propidium iodide (50 μg/ml); RNAse A (50 μg/ml) for 15 min in the dark before flow cytometric analysis using a FacsCalibre (Becton Dickinson). Analysis is performed using Cell Quest software.

TF1 cells [3] = experiment: TF1 apoptosis by light scatter (FSC/SSC, live gate) analysis; type: cell-based, human; conditions: TF1, 48 h, with GM-CSF 2 ng/ml (35% upon factor withdrawal)
Protocol: Light Scatter Analysis takes advantage of the fact that by using the laser beam of a flow cytometer one can determine the size (Forward Scatter) and granularity (Side Scatter) of a cell. The morphological changes associated with apoptosis, such as decreased size (shrinkage) and granularity affect these parameters. As a consequence, cells undergoing apoptosis will move to the left and slightly down, from the parameters of a healthy population.
TF1 cells are plated into 24 well plates (2×10^5/ml) and are cultured for 48 h in the presence or absence of GM-CSF (2 ng/ml). Cells are then harvested by centrifugation (1000 rpm, for 10 min) and washed in PBS. […] Forward and Side scatter parameters are assessed using Cell Quest software.
Culturing TF1 cells in the absence of GM-CSF induces cell death. This death induces morphological changes in the Forward and Side Scatter parameters that can be detected by FacsCalibre analysis. […]
To assess the antiapoptotic effect of BCL2 over-expression in TF1 cells, cells are transduced with either retrovirus expressing full length BCL2 coding sequence or control vector lacking BCL2. […] The percentage of transduced cells remaining in the live gate (an arbitrary region pre-set on a healthy population of TF1 cells grown in the presence of GM-CSF (2 ng/ml)) is recorded. An index of antiapoptotic activity is calculated by computing the difference in samples ±GMCSF. […]

MCF7 cells = experiment: Anchorage Independence/Soft Agar Assay, MCF7; type: cell-based, human; design: PERCENTAGE SURVIVAL RELATIVE TO MS, MCF7, n = 2: tested at 2 µg; conditions: soft agar
Protocol: (§2) The Anchorage Independence/Soft Agar Assay allows assessment of the influence of modulation of gene expression on clonal tumouroid formation by observing and quantifying tumouroid morphology and colony number over an extended period of logarithmic growth thereby ascertaining any cell death is induced.
(§3) Cells are seeded into a 6-well plate and allowed to adhere overnight at 37° C. in a humidified atmosphere containing 5% CO2 in air. Cells are next transfected with siRNA Oligomers, at a concentration of 2 μg, against the genes of interest. Transfections continued for 4 hrs after which the transfection solution is removed and cells are refed with fresh medium and allowed incubate overnight. Transfected cells are next harvested for seeding into soft agar assay as described below. Cells are seeded at 5×10^4 cells per well of a 6 well plate and incubated over a 12/14-Day period whilst proliferating in a 0.05% Agar/Medium cell suspension at 37° C. in a humidified atmosphere containing 5% CO2 in air. Colonies formed are subsequently stained with Crystal Violet, their morphology is assessed and colonies formed are enumerated at a 4× magnification.
(§4) The cytotoxic effect of each gene is determined by a reduction in colony number compared to our MS control, but any influence on the morphology of the colony is also noted.
(§5) Examples of genes with a cytotoxic effect on knockdown as detected by the soft agar assay are outlined in Table 14. Table 14 gives the percentage survival of the indicated cell lines post transfection with siRNA oligomers to target genes relative to that of the missense in an anchorage independent assay. As an internal reference, the known survival gene Survivin was also targeted by siRNA. This table illustrates the magnitude of cytotoxicity induced by the knockdown of each target gene compared to the MS control i.e. the number of colonies formed are stained with Crystal violet and enumerated visually as discussed.

PC3 cells [4] = experiment: Anchorage Independence/Soft Agar Assay, PC3; type: cell-based, human; conditions: soft agar, experiment n = 1
Protocol: as §2
as §3, with “Cells are seeded at 5×10^4 cells per well of a 6 well plate and incubated over a 12/14-Day period whilst proliferating in a 0.05% Agar/Medium cell suspension at 37° C. in a humidified atmosphere containing 5% CO2 in air.” left out
as §4
(§6) Examples of genes with a cytotoxic effect on knockdown as detected by the soft agar assay are outlined in Table 14. […]

U251 cells = experiment: Anchorage Independence/Soft Agar Assay, U251; type: cell-based, human; conditions: soft agar, experiment n = 1
Protocol: as §2
as §3, with “Cells are seeded at 5×10^4 cells per well of a 6 well plate and incubated over a 12/14-Day period whilst proliferating in a 0.05% Agar/Medium cell suspension at 37° C. in a humidified atmosphere containing 5% CO2 in air.” left out
as §4, §6

HCT15 cells = experiment: Anchorage Independence/Soft Agar Assay, HCT15; type: cell-based, human; design: PERCENTAGE SURVIVAL RELATIVE TO MS, HCT15, n = 2: tested at 2 µg; PERCENTAGE SURVIVAL RELATIVE TO MS, HCT15, n = 1: tested at 2 µg siRNA; conditions: soft agar
Protocol: as §2, §3, §4, §5

PC3 cells [5] = experiment: Cell Migration Assay (Chemicon ECM550, Boyden Chamber); type: cell-based, human; conditions: 48 hours post siRNA transfection, 24-hour migration, compared to missense and UPA controls
Protocol: Cells are seeded into a 6-well plate and allowed to adhere overnight at 37° C. in a humidified atmosphere containing 5% CO2 in air. Cells are next transfected with siRNA oligonucleotides, at a concentration of 2 μg/ml, against the genes of interest, as described in detail in Example 5. Transfections are continued for 4 hrs after which the transfection solution is removed and cells are refed with fresh medium and allowed incubate overnight. Transfected cells are next harvested for seeding into migration assay as described below.
The Chemicon Cell Migration Assay (ECM550) is used to quantify the number of PC3 cells that successfully migrate across a Boyden Chamber towards a chemoattractant over a 24-hour incubation period. Assessment of PC3 cell migration is performed routinely 48 hours post siRNA Transfection. The effect of reducing the expression of genes of interest is compared to that of a missense control oligomer and to the influence of UPA knockdown, which is reported in the literature to decrease PC3 cell migration. The Migration Assay is performed as per manufacturers inductions. Results are illustrated in FIGS. 39 to 41.
Cells were plated and transfected with the indicated siRNA as described above. Migration of PC3 cells was tracked using a fluorescent dye. Consequently increases in fluorescent units correlates positively with increased migration.

cancer cell lines = experiment: Anchorage Independence/Soft Agar Assay, summary over the cell lines; type: cell-based, human; conditions: 14-day anchorage independent assay, over the cell lines examined
Protocol: as §2, §3, §4
As an internal reference, the known survival gene ‘Survivin’ was also targeted by siRNA.

A549 cells = experiment: Anchorage Independence/Soft Agar Assay, A549; type: cell-based, human; design: PERCENTAGE SURVIVAL RELATIVE TO MS, A549, n = 2: tested at 2 µg; conditions: soft agar
Protocol: as §2, §3, §4, §5

ELAV-1 = experiment: Validation of missense control siRNA on ELAV-1 expression; type: cell-based; conditions: missense control with 4 base pair mismatch substitutions
From the text: The missense control outlined above is designed by introducing 4 base pair mismatch substitutions into the siRNA oligo sequence for ELAV-1 (Accession number xm—008947; gi 1475941).

[6] = system: OAS1 and GBP1 mRNA in HCT15, A549, SKOV3, DU145, PC3, A498, U251 cells; experiment: Interferon response genes mRNA by QPCR after siRNA transfection; type: cell-based, human; conditions: compared to untransfected cells
From the text: Inhibiting gene expression using siRNA has been associated with non-specific induction of interferon from target cells (Sledz C A et al. Nat Cell Biol. September 2003; 5(9): 834-9. 2003). Since induction of interferon may possibly affect biological assays, we control for the effect of our siRNA oligonucleotides on inducing interferon. This is examined by quantitating message RNA levels for two interferon responsive genes, namely OAS1, and GBP1, both before and after siRNA transfection.
QPCR Primers, designed by MWG Biotech as described previously, are as follows.
The levels of expression of OAS1 and GBP1 in siRNA-transfected cells are expressed as a percentage of that in untransfected control cells.

## GM-CSF: a 22 kDa proinflammatory cytokine; survival factor for neutrophils and TF1 cells
[1]
  percentage of cells with a sub G1 profile: 9.7%
TF1 cells [2]
  cells with sub-G1 profiles: 5%
TF1 cells [3]
  percentage of cells in the live gate: 77%

## siRNA CNK/PRK: sense UCGUAGUGCUUGUACUUACtt, antisense GUAAGUACAAGCACUACGAtt (sense UCGUAGUGCUUGUACUUACTT; antisense GUAAGUACAAGCACUACGATT; chemistry not given here)
MCF7 cells; experiment n = 1
  PERCENTAGE SURVIVAL RELATIVE TO MS, MCF7, n = 1: 98.2%
MCF7 cells; experiment n = 2
  PERCENTAGE SURVIVAL RELATIVE TO MS, MCF7, n = 2: 66.3%
PC3 cells [4]
  PERCENTAGE SURVIVAL RELATIVE TO MS, PC3, n = 1: 10%
U251 cells
  PERCENTAGE SURVIVAL RELATIVE TO MS, U251, n = 1: 13.5%
HCT15 cells; experiment n = 1
  PERCENTAGE SURVIVAL RELATIVE TO MS, HCT15, n = 1: 38.6%
HCT15 cells; experiment n = 2
  PERCENTAGE SURVIVAL RELATIVE TO MS, HCT15, n = 2: 72.3%
PC3 cells [5]
  migration of PC3 cells: increases the ability of cancer cells to migrate
Cancer cell lines
  cell death / apoptosis in the soft agar assay: induced toxicity consistently in the HCT15 cell line
A549 cells; experiment n = 1
  PERCENTAGE SURVIVAL RELATIVE TO MS, A549, n = 1: 91%
A549 cells; experiment n = 2
  PERCENTAGE SURVIVAL RELATIVE TO MS, A549, n = 2: 39.6%

## siRNA MS: missense control siRNA, sense UGAGAAUGUGAUGCGCGUCTT, antisense GACGCGCAUCACAUUCUCATT (chemistry not given here)
ELAV-1
  expression of ELAV-1: incapable of decreasing the expression ELAV-1
[6]; HCT15, A549, SKOV3, DU145 and U251 cells
  mRNA levels of interferon response genes OAS1 and GBP1: does not increase mRNA levels of interferon response genes
[6]; PC3 and A498 cells
  mRNA levels of interferon response genes OAS1 and GBP1: Some increase in mRNA of interferon response genes
